# Source: patent publication US20220162215A1, “COMPOSITIONS AND METHODS OF USING THE SAME FOR TREATMENT OF NEURODEGENERATIVE AND MITOCHONDRIAL DISEASE” (MITOKININ, INC., priority 2019, published 2022)
# Read-outs that look alike come from different tables or passages of the source.
# Legend:
# HeLa MKYP cells [1] = experiment: Toxicity / cell death measured by DAPI staining (take-up); format: cell-based; details: 50 μM; for Toxicity (% positive for DAPI take-up @ 50 μM): Table 1
# Procedure: H2O2 treatment was performed as a control for cell death as measured by DAPI staining.
# (§1) Briefly, HeLa MKYP cells were plated at 10,000 cells/well in 96 well plates along with compounds at various concentrations. Following 16 hrs of incubation, cells were treated with 1 uM FCCP/oligomycin for 6 hours, then analyzed via FACS for the presence of mitochondria in lysosomes (as determined by an emissions spectrum shift from the pH-sensitive mtKeima tag).
# HeLa MKYP cells [2] = experiment: Human mitophagy assay (HeLa MKYP, mtKeima FACS, FCCP/oligomycin); format: cell-based; details: for EC50 / activation at 1.6 µM / activation at 6.3 µM: Homo sapiens, HeLa; for activation at 1.6 µM / activation at 6.3 µM: 6 h, read-out: Potency at 1 μM F/O toxin*; for activation at 1.6 µM / Potency at 1 μM F/O toxin*: Table 2, % activation of mitophagy at 1.6 μM treatment of the compound; for Potency at 1 μM F/O toxin: Table 1; for Potency at 1 μM F/O toxin / activation at 6.3 µM: % activation of mitophagy at 6.3 μM treatment of the compound
# Procedure: as §1, with “tag). Examples are shown in FIG. 1 through FIG. 13 below.” for “tag).”
# [3] = Table 3, read-out: Potency at 1 μM F/O toxin* (EC50 of mitophagy activation)
# [4] = Table 3 Supplement A, as measured in Table 3, read-out: Potency (EC50 Max Mitophagy) (μM)*
SMILES,Toxicity (% positive for DAPI takeup @ 50 μM) (HeLa MKYP cells [1]; Table 3),EC50 (HeLa MKYP cells [2]; [3]),Toxicity (% positive for DAPI take-up at 50 μM)* (HeLa MKYP cells [1]; Table 3 Supplement A),EC50 (HeLa MKYP cells [2]; [4]),other results
FC(F)(F)c1cc2c(NC3CCCc4ccccc43)ncnc2[nH]1 (stereo not drawn) [Compound 32],27.1%,> 50 µM,,,
CC(C)(Nc1ncnc2[nH]c(C(F)(F)F)cc12)c1ccccc1 [Compound 10],,,,,Toxicity (% positive for DAPI takeup @ 50 μM) (HeLa MKYP cells [1]; Table 2): 5.6%; activation at 1.6 µM (HeLa MKYP cells [2]): 17%
FC(F)(F)c1cc2c(NC3CCN(Cc4ccccc4)CC3)ncnc2[nH]1 [Compound 78],43.9%,21.4 µM,43.86%,21.4 µM,
CCCCNc1ncnc2[nH]c(C(OCC)C(F)(F)F)cc12 (stereo not drawn) [Compound 3],,,,,Toxicity (% positive for DAPI take-up @ 50 μM) (HeLa MKYP cells [1]): 15.8%; Potency at 1 μM F/O toxin (HeLa MKYP cells [2]): 25.9%
FC(F)(F)c1cc2c(NCc3cncnc3)ncnc2[nH]1 [Compound 49],,11.7 µM,,,Toxicity (% positive for DAPI takeup @ 50 μM) (HeLa MKYP cells [1]; human): 23.0%
CCCCNc1ncnc2[nH]c(C3CC3)nc12 [Compound 29],16.2%,18.8 µM,,,
Fc1cc(Cl)cc(CNc2ncnc3[nH]c(C(F)(F)F)cc23)c1 [Compound 24],4.8%,,,,activation at 6.3 µM (HeLa MKYP cells [2]; Table 3): 51.2%
c1ncc(CNc2ncnc3[nH]c(C4CC4)nc23)cn1 [Compound 36],,> 50 µM,,,Toxicity (% positive for DAPI takeup @ 50 μM) (HeLa MKYP cells [1]; human): 7.1%
"CCCCNc1ncnc2[nH]c(C3CCC3)nc12 [EP-0035339, N-butyl-8-cyclobutyl-9H-purin-6-amine]",,,6.13%,> 25 µM,
FC(F)(F)c1cc2c(NC3CCc4ccccc43)ncnc2[nH]1 (stereo not drawn) [Compound 18],,,,,Toxicity (% positive for DAPI takeup @ 50 μM) (HeLa MKYP cells [1]; Table 2): 1.7%; Potency at 1 μM F/O toxin* (HeLa MKYP cells [2]): 14.3%
COc1ccc(CNc2ncnc3[nH]c(C(F)(F)F)cc23)c(OC)c1 [Compound 51],42.6%,2.1 µM,,,
OC[C@@H](Nc1ncnc2[nH]cnc12)c1ccccc1 [Compound 61],8.9%,> 50 µM,8.9%,> 25 µM,
FC(F)(F)c1cc2c(NC3(c4ccccc4)CC3)ncnc2[nH]1 [Compound 11],,,,,Toxicity (% positive for DAPI takeup @ 50 μM) (HeLa MKYP cells [1]; Table 2): 80.5%; activation at 1.6 µM (HeLa MKYP cells [2]): 20.8%
"COc1cc(CNc2ncnc3[nH]c(C4CC4)nc23)ccn1 [EP-0036032, 8-cyclopropyl-N-[(2-methoxy-4-pyridyl)methyl]-9H-purin-6-amine]",,,7.06%,> 25 µM,
Cc1nc2c(N[C@H](C)c3ccccc3)ncnc2[nH]1 [Compound 73],9.7%,> 50 µM,9.69%,> 25 µM,
CC(CNc1ncnc2[nH]cnc12)c1ccccc1 (stereo not drawn) [Compound 65],28.9%,3.6 µM,28.92%,3.61 µM,
c1ccc2c(c1)OCC[C@H]2Nc1ncnc2[nH]cnc12 [Compound 62],16.0%,> 50 µM,15.96%,> 25 µM,
CCCCNc1ncnc2[nH]c(-c3ccccc3)cc12 [Compound 6],,,,,Toxicity (% positive for DAPI take-up @ 50 μM) (HeLa MKYP cells [1]): 90.0%; Potency at 1 μM F/O toxin (HeLa MKYP cells [2]): 52.0%
OC[C@H](Nc1ncnc2[nH]cnc12)c1ccccc1 [Compound 75],14.5%,3.5 µM,14.49%,3.48 µM,
CCCCNc1ncnc2[nH]c(CC)cc12 [Compound 7],,,,,Toxicity (% positive for DAPI take-up @ 50 μM) (HeLa MKYP cells [1]): 93.4%; Potency at 1 μM F/O toxin (HeLa MKYP cells [2]): 14.0%
FC(F)(F)c1cc2c(NC3COc4ccccc43)ncnc2[nH]1 (stereo not drawn) [Compound 13],,,,,Toxicity (% positive for DAPI takeup @ 50 μM) (HeLa MKYP cells [1]; Table 2): 39.7%; activation at 1.6 µM (HeLa MKYP cells [2]): 52.5%
CCCCNc1ncnc2[nH]c(C(OCC)C(F)(F)F)cc12 (stereo not drawn) [Compound 5],,,,,Toxicity (% positive for DAPI take-up @ 50 μM) (HeLa MKYP cells [1]): 47.4%; Potency at 1 μM F/O toxin (HeLa MKYP cells [2]): 17.9%
FC(F)(F)c1cc2c(NC3CCOc4ccccc43)ncnc2[nH]1 (stereo not drawn) [Compound 33],22.3%,3.5 µM,,,
COc1cc(CNc2ncnc3[nH]c(C4CC4)nc23)ccn1 [Compound 35],7.1%,> 50 µM,,,

SMILES,Toxicity (% positive for DAPI takeup @ 50 μM) (HeLa MKYP cells [1]; Table 3),EC50 (HeLa MKYP cells [2]; [3]),Toxicity (% positive for DAPI take-up at 50 μM)* (HeLa MKYP cells [1]; Table 3 Supplement A),EC50 (HeLa MKYP cells [2]; [4]),other results
FC(F)(F)c1cc2c(NC3CCCc4ccccc43)ncnc2[nH]1 (stereo not drawn) [Compound 16],,,,,Toxicity (% positive for DAPI takeup @ 50 μM) (HeLa MKYP cells [1]; Table 2): 4.5%; Potency at 1 μM F/O toxin* (HeLa MKYP cells [2]): 10.1%
c1ccc(CCNc2ncnc3[nH]cnc23)cc1 [Compound 60],19.7%,2.8 µM,23.09%,2.26 µM,
c1ccc2c(c1)CC[C@H]2Nc1ncnc2[nH]cnc12 [Compound 55],10.3%,> 50 µM,10.31%,> 25 µM,
"c1ncc(CNc2ncnc3[nH]c(C4CC4)nc23)cn1 [EP-0036050, 8-cyclopropyl-N-(pyrimidin-5-ylmethyl)-9H-purin-6-amine]",,,,> 25 µM,Toxicity (% positive for DAPI take-up at 50 μM)* (HeLa MKYP cells [1]; human): 7.06%
c1ccc2c(c1)OCC[C@@H]2Nc1ncnc2[nH]cnc12 [Compound 59],17.0%,1.8 µM,19.76%,1.69 µM,
CCCCNc1ncnc2[nH]c(CC(F)(F)F)cc12 [Compound 4],,,,,Toxicity (% positive for DAPI take-up @ 50 μM) (HeLa MKYP cells [1]): 24.8%; Potency at 1 μM F/O toxin (HeLa MKYP cells [2]): 13.9%
CCCCNc1ncnc2[nH]c(C(F)(F)F)cc12 [Compound 1],,,,,Toxicity (% positive for DAPI take-up @ 50 μM) (HeLa MKYP cells [1]): 4.6%; Potency at 1 μM F/O toxin (HeLa MKYP cells [2]): 42.3%
CC(C)[C@@H](Nc1ncnc2[nH]c(C(F)(F)F)cc12)c1cncnc1 [Compound 26],6.8%,6.9 µM,6.82%,6.85 µM,
OC[C@H](Nc1ncnc2[nH]c(C(F)(F)F)cc12)c1ccccc1 [Compound 76],30.4%,14.7 µM,30.45%,14.7 µM,
OC[C@@H](Nc1ncnc2[nH]c(C(F)(F)F)cc12)c1ccccc1 [Compound 77],30.3%,4.4 µM,30.27%,4.41 µM,
O=S1(=O)Cc2ccccc2C(Nc2ncnc3[nH]c(C(F)(F)F)cc23)C1 (stereo not drawn) [Compound 79],13.2%,> 50 µM,13.18%,> 25 µM,
FC(F)(F)c1cc2c(NCc3cccc(Cl)c3)ncnc2[nH]1 [Compound 25],20.3%,,,,activation at 6.3 µM (HeLa MKYP cells [2]; Table 3): 49.9%
CCCCNc1ncnc2[nH]c(-c3ccnn3C)cc12 [Compound 2],,,,,Toxicity (% positive for DAPI take-up @ 50 μM) (HeLa MKYP cells [1]): 94.6%; Potency at 1 μM F/O toxin (HeLa MKYP cells [2]): 15.0%
FC(F)(F)c1cc2c(NC3CCCc4ncncc43)ncnc2[nH]1 (stereo not drawn) [Compound 45],12.0%,> 50 µM,11.97%,> 25 µM,
Fc1cccc(CNc2ncnc3[nH]c(C(F)(F)F)cc23)c1Cl [Compound 23],4.5%,,,,activation at 6.3 µM (HeLa MKYP cells [2]; Table 3): 87.7%
CCCCNc1ncnc2[nH]c(C)cc12 [Compound 8],,,,,Toxicity (% positive for DAPI take-up @ 50 μM) (HeLa MKYP cells [1]): 15.4%; Potency at 1 μM F/O toxin (HeLa MKYP cells [2]): 43.4%
FC(F)(F)c1cc2c(N[C@H]3CCOc4ccccc43)ncnc2[nH]1 [Compound 42],37.7%,5.6 µM,37.66%,5.64 µM,
FC(F)(F)c1cc2c(N[C@H]3COc4ccccc43)ncnc2[nH]1 [Compound 39],22.8%,1.4 µM,27.32%,1.49 µM,
FC(F)(F)c1cc2c(NC3COCc4ccccc43)ncnc2[nH]1 (stereo not drawn) [Compound 34],42.9%,> 50 µM,,,
COc1ccccc1CNc1ncnc2nc[nH]c12 [Compound 56],12.4%,10.8 µM,12.42%,10.8 µM,
c1ccc(C2(Nc3ncnc4[nH]cnc34)CC2)cc1 [Compound 72],13.4%,> 50 µM,13.38%,> 25 µM,
FC(F)(F)c1cc2c(N[C@@H]3COc4ccccc43)ncnc2[nH]1 [Compound 41],29.2%,14.9 µM,29.25%,14.9 µM,
Clc1cccc(CNc2ncnc3nc[nH]c23)c1 [Compound 58],12.5%,16 µM,12.54%,16 µM,
C[C@H](Nc1ncnc2[nH]c(C3CC3)nc12)c1ccccc1 [Compound 46],27.6%,3.2 µM,27.61%,3.17 µM,
